This is an account of results in patent US11446282B2, “Methods of treating mixed dyslipidemia and hypertriglycertdemia” (Kowa Company, Ltd., priority 2017, dated 2022).

For one data set, the target named is T1, PPARα (Homo sapiens, UniProt Q07869).
T1 sequence (Q07869 1-468): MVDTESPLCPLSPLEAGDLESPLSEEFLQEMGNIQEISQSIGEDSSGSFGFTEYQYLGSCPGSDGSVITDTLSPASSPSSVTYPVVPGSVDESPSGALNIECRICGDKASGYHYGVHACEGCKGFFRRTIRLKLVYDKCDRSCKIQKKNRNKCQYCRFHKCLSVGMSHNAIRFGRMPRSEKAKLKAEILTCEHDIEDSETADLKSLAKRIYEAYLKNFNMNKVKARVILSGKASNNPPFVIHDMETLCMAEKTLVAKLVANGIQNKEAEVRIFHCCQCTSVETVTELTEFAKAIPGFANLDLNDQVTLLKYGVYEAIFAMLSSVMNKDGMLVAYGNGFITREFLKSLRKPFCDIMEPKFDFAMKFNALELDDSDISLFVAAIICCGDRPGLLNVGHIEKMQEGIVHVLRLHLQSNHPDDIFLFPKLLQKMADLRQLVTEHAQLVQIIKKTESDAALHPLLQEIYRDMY
The experiment in a line: PPARα-activating effect (EC50). Type of data set: biochemical.

Data set [1] is described as follows: Urinary excretion in nonclinical and clinical studies. Type of data set: in vivo.
The test system of a further data set is European patients. The experiment in a line: Study K-877-201, Phase 2 dose-finding study conducted in Europe. It is filed as in vivo, human. How it is done:
In previous clinical trials, pemafibrate has been administered at doses ranging from 0.1 mg to 1.6 mg per day in healthy adults. Doses up to 0.4 mg per day have been administered in patients with dyslipidemia. […] Increases in LDL-C, both by beta quantification and calculation with the Friedewald equation, were also observed. Based on analysis of efficacy variables, pemafibrate appeared to have a lowering effect on Apo C3 that led to the conversion of VLDL particles to LDL particles, increasing the fraction of larger LDL particles, and reducing TG levels. Similarly, the reduction of Apo C3 led to increased removal of remnant-like particles and lowering of Apo B48. […] The observed increases in Apo A1 and HDL-C resulted from both increased production of Apo A1 in the liver and increased turnover of TG-rich lipoproteins, both of which were associated with a decreased CHD risk.

The mark [2] stands for this setting: baseline to Week 12, last observation carried forward.

Consider `CC[C@@H](Oc1cccc(CN(CCCOc2ccc(OC)cc2)c2nc3ccccc3o2)c1)C(=O)O` [Pemafibrate, (2R)-2-[3-({1,3-benzoxazol-2-yl[3-(4-methoxyphenoxy)propyl]amino}methyl)phenoxy]butanoic acid], for which the “specificity for the PPARα receptor” value on PPARα (versus fenofibrate) is “more specific”. In addition, the “times more active than fenofibric acid in terms of the EC50 of the PPARα-activating effect” value at PPARα (versus fenofibric acid) is reported as “approximately 2500 times”. Further, the urinary excretion result in data set [1] is given as “low”. Also, the “placebo-adjusted TG reduction” value with European patients (0.2 mg twice daily) stood at 54.4%. Moreover, in the data set with European patients (setting [2]), the “Apo A1 change” value was “increases”, the “Apo A2 change” value is listed as “increases”, the “Apo B48 change” value is listed as “decreases” and the “Apo C2 change” value is given as “decreases”. In addition, in the data set on European patients (setting [2]), the “Apo C3 change” value was “decreases”, the FGF21 change entry is “increases”, the HDL-C change result was “increases” and the VLDL-C change result was “decreases”. In the data set on European patients (by beta quantification and Friedewald equation), the LDL-C change entry is “Increases”. Also, in the data set with European patients (in vivo), the non-HDL-C change result is listed as “decrease” and the “total Apo B levels change” value is “no changes”. For the same compound, in the data set on European patients (twice daily compared to once daily), the “efficacy in TG reduction and HDL-C elevation” value is given as “Greater efficacy”.
